How the values were obtained:
Type in all cases: biochemical
HDAC4 = HDAC4 (Homo sapiens, UniProt P56524); experiment: HDAC enzymatic assay, HDAC4; details: fluorogenic tetrapeptide RHKKAc substrate 10 μM; read-out: HDAC isoforms IC50 (nM), 4
Description: (§1) Each compound was dissolved in DMSO, and progressively diluted solutions were used for testing. […] Upon its deacetylation, the fluorophore was released given rise to fluorescence emission which was detected by a fluorimeter, and the IC50 values of the compounds were determined by analyzing dose-response inhibition curves.

HDAC7 = biological target: T1, HDAC7 (Homo sapiens, UniProt Q8WUI4); experiment: HDAC enzymatic assay, HDAC7; details: fluorogenic tetrapeptide RHKKAc substrate 10 μM; read-out: HDAC isoforms IC50 (nM), 7
T1 sequence (Q8WUI4 1-952): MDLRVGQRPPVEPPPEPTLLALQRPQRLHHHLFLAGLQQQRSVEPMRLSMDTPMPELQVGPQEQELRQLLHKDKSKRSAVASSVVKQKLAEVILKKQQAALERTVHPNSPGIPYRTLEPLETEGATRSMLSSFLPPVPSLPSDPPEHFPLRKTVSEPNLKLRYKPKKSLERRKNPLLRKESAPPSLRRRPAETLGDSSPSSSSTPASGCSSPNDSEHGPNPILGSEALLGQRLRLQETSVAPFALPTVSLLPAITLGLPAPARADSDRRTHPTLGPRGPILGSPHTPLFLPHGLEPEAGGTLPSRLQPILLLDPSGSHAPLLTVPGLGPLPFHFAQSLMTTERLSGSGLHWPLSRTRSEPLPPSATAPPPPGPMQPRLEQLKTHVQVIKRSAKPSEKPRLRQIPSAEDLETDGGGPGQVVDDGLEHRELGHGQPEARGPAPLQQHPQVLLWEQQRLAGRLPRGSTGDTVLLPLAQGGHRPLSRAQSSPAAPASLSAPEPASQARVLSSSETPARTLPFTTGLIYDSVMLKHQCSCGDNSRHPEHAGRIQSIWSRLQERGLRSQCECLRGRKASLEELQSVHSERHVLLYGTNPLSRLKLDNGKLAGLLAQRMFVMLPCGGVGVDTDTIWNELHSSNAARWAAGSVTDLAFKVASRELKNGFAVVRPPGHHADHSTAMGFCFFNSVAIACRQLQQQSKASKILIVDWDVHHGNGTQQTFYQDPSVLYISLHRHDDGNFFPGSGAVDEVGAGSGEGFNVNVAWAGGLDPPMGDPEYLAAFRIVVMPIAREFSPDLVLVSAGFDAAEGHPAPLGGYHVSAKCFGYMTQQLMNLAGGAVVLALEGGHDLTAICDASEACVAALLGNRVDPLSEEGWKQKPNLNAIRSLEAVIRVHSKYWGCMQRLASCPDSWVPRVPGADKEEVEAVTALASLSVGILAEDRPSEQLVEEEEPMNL
Description: as §1

HDAC8 = biological target: T2, HDAC8 (Homo sapiens, UniProt Q9BY41); experiment: HDAC enzymatic assay, HDAC8; details: fluorogenic tetrapeptide RHKKAc substrate 10 μM; read-out: HDAC isoforms IC50 (nM), 8
T2 sequence (Q9BY41 1-377): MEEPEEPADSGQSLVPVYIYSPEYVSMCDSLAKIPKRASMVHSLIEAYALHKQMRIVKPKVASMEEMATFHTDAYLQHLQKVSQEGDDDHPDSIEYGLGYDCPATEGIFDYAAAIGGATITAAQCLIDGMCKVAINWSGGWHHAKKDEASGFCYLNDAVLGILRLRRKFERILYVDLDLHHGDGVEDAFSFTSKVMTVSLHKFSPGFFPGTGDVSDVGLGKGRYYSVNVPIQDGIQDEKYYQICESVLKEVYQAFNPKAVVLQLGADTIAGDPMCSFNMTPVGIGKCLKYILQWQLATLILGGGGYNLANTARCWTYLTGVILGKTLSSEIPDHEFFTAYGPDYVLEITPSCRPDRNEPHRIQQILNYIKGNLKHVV
Description: as §1

HDAC2 = HDAC2 (Homo sapiens, UniProt Q92769); experiment: HDAC enzymatic assay, HDAC2; details: fluorogenic tetrapeptide RHKKAc substrate 10 μM; read-out: HDAC isoforms IC50 (nM), 2
Description: as §1

HDAC1 = HDAC1 (Homo sapiens, UniProt Q13547); experiment: HDAC enzymatic assay, HDAC1; details: fluorogenic tetrapeptide RHKKAc substrate 10 μM; read-out: HDAC isoforms IC50 (nM), 1
Description: as §1

HDAC9 = HDAC9 (Homo sapiens, UniProt Q9UKV0); experiment: HDAC enzymatic assay, HDAC9; details: fluorogenic tetrapeptide RHKKAc substrate 10 μM; read-out: HDAC isoforms IC50 (nM), 9
Description: as §1

Sequence of HDAC9 (Q9UKV0 whole entry, canonical isoform): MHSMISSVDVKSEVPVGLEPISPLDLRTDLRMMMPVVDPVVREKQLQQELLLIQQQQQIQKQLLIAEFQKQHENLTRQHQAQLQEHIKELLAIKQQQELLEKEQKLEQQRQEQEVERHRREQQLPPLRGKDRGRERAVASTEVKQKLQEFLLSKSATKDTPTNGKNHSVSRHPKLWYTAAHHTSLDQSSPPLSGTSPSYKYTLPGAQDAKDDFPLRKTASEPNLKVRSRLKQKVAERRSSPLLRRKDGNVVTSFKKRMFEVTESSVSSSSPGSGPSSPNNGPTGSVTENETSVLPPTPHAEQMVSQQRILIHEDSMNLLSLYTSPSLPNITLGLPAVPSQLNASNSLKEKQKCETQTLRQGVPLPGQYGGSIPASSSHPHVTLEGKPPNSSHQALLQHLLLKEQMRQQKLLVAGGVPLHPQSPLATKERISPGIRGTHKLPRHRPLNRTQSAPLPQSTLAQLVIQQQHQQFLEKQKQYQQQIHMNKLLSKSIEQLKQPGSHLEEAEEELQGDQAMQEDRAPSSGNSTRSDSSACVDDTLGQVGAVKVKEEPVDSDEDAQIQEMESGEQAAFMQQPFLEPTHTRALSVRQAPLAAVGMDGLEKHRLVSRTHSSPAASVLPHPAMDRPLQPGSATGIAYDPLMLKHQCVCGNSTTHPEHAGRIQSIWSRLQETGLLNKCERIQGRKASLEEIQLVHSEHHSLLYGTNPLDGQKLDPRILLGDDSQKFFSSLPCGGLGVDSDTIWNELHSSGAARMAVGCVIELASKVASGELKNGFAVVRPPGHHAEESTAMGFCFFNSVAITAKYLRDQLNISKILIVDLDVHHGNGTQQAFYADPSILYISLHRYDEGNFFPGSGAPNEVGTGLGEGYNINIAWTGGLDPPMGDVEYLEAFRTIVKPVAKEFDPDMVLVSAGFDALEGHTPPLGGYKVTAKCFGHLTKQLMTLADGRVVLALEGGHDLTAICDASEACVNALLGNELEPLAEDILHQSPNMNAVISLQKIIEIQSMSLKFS
Sequence of HDAC4 (P56524 whole entry, canonical isoform): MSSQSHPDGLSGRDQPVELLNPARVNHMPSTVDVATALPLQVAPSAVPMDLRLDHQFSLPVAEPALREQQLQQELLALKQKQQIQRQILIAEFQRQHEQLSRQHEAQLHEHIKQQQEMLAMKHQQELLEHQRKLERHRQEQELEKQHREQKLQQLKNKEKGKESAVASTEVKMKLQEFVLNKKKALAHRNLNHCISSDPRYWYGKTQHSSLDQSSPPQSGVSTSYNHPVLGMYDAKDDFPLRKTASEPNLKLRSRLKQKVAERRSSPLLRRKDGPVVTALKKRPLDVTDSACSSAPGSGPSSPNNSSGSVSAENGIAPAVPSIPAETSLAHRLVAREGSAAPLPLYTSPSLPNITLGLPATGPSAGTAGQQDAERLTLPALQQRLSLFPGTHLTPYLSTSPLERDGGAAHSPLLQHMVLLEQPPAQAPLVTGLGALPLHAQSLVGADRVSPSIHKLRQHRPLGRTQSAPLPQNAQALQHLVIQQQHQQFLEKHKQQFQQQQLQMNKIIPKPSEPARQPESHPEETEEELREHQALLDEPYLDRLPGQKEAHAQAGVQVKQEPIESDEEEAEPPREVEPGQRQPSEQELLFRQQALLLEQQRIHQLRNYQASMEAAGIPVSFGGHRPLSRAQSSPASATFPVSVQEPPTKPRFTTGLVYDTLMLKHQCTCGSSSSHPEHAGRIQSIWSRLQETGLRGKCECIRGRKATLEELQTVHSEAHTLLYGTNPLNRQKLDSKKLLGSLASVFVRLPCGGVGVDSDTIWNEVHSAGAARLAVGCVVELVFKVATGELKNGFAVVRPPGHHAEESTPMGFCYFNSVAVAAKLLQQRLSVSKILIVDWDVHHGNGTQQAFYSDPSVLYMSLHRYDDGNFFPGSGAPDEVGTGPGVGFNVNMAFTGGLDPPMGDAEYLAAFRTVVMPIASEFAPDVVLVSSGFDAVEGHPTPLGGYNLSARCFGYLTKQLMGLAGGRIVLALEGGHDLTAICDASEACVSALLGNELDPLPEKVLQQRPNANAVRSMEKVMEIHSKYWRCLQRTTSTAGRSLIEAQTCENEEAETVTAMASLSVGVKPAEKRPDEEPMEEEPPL
Sequence of HDAC2 (Q92769 whole entry, canonical isoform): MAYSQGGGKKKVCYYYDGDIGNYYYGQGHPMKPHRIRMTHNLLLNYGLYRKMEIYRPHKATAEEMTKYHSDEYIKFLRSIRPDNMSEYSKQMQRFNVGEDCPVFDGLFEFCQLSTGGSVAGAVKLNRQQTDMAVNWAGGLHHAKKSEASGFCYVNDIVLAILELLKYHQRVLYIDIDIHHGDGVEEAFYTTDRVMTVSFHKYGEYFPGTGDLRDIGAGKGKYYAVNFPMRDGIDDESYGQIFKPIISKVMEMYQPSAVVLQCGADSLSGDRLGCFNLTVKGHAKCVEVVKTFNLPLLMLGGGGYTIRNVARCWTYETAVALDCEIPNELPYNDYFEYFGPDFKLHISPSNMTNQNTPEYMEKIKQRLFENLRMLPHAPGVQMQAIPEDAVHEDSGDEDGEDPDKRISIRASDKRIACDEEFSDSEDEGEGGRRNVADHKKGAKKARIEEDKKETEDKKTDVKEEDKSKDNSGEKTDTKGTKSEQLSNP
Sequence of HDAC1 (Q13547 whole entry, canonical isoform): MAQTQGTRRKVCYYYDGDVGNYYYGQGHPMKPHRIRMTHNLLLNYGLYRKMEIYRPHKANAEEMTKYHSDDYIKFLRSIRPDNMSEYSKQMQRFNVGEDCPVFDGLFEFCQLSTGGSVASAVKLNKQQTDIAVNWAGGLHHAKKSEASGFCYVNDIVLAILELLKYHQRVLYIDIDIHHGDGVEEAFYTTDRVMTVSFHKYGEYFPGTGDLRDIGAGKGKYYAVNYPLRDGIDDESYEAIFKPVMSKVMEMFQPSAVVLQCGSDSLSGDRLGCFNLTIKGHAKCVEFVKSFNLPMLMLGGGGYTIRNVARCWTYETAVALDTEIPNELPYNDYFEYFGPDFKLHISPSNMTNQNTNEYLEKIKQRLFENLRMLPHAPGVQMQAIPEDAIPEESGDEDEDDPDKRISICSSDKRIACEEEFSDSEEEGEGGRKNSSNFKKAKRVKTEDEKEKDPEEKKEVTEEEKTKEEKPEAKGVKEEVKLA

| SMILES | IC50 (HDAC4) | IC50 (HDAC7) | IC50 (HDAC8) | IC50 (HDAC2) | IC50 (HDAC1) | IC50 (HDAC9) |
| --- | --- | --- | --- | --- | --- | --- |
| CN1C(=O)CCC[C@H]1C(=O)N[C@@H](CCCCCS)C(=O)Nc1ccccc1 [Example 40, (S)-1-Methyl-6-oxo-piperidine-2-carboxylic acid ((S)-6-mercapto-1-phenylcarbamoyl-hexyl)-amide] | 100 to 500 nM | < 50 nM | 100 to 500 nM | 50 to 100 nM | < 50 nM | < 50 nM |
| Cc1ccc(NC(=O)[C@H](CCCCCS)NC(=O)[C@@H]2CCCC(=O)N2)cc1 [Example 39, (S)-6-Oxo-piperidine-2-carboxylic acid ((S)-6-mercapto-1-p-tolylcarbamoyl-hexyl)amide] | 100 to 500 nM | < 50 nM | 100 to 500 nM | 50 to 100 nM | < 50 nM | < 50 nM |
| O=C1NC[C@H](c2ccccc2)[C@H]1C(=O)N[C@@H](CCCCCS)C(=O)Nc1ccccc1 [Example 30, (3R,4S)-2-Oxo-4-phenyl-pyrrolidine-3-carboxylic acid ((S)-6-mercapto-1-phenylcarbamoyl-hexyl)-amide] | < 50 nM | 100 to 500 nM | 100 to 500 nM | 100 to 500 nM | 50 to 100 nM | 50 to 100 nM |
